Experimental data: patent US12440493B2, “Combination therapy for treating cancer comprising substituted piperazines” (Eli Lilly and Company, priority 2020, dated 2025)
“And” between values parts separate entries of the source, which are not always exact repeats. Equal values may be shown once.

Test system: IDH1(R132H) primary human AML cells
Assay: AML clearance in peripheral blood (flow cytometry, % hCD33+hCD45+ of total white cells), human AML PDx models in NSG mice
Assay type: in vivo
Conditions: for AML clearance (% hCD33 + hCD45+ (of total white cells)): QD, PO, each value one animal
Method: Compounds and Formulation. For in vivo studies, each test article is prepared at an appropriate concentration with vehicle. […] Compound A is prepared fresh at the appropriate concentrations with vehicle every 7 days and stored at 4° C. between doses. […] Cytarabine is prepared fresh weekly by dilution with sterile saline from stock solution of Cytarabine (injection 20 mg/mL, (Pfizer injectables')). Azacitidine (Sigma, Lot #MKBR7212) is formulated in sterile water and is prepared fresh daily immediately before dosing. In vivo human AML PDx models. […] Two models are used in the studies: […] As needed, splenocytes from tumor-bearing mice are used to propagate and expand the models, as described. Each test article is prepared as described above at an appropriate concentration with vehicle to give animals the doses tested in this study at a dosing volume of 10 μL/gram body weight. Mice receiving Compound A (PO, QD) are treated at the indicated doses for the duration of the study. The combination agents are dosed as follows: […] Treated mice are assessed in comparison to vehicle treated and naïve (non-tumor bearing) control mice. Body weight is recorded twice per week. […] AML PDx model propagation. […] Spleens are processed and splenocytes isolated as described below. Two hundred μL per subject of the splenocyte prep is injected IV (intravenous, tail vein) into recipient NSG mice. […] Once engraftment is confirmed, the mice are monitored biweekly until ready to be put on study. […] Submandibular blood is collected. Spleen/Splenocyte Processing and Prep. After excision, a spleen is weighed, and […] is placed in a standard sterile 15 mL polypropylene conical tube containing PBS, and placed on ice. […] The spleen is placed in ice cold sterile PBS in a 15 mL collection tube. The spleen is removed from the collection tube and placed in a 100 micron 50 mL conical tube cell strainer (BD Falcon #352360). The spleen is processed by gentle rubbing of the spleen tissue against the surface of the cell strainer with the end of a 5 mL syringe plunger in a circular motion. The surface of the strainer is rinsed with 10 mL room temperature sterile DPBS (HyClone SH30028) 3 times during the process. […] The cell pellet is collected by centrifugation (300×g) and washed three times with 30 mL sterile DPBS. The cells are counted and resuspended in DPBS at the desired implant concentration. Bone Marrow Collection. […] Flow cytometry analysis of human white cells. Submandibular blood samples from in vivo studies are collected. Fluor-conjugated antibody stains are added according to the manufacturer's instructions (anti-human CD33-PE (clone WM53, BD Cat #555450), anti-human CD14-APC (clone MφpP9, BD Cat #340436), anti-human CD15-V450 (clone HI98, BD Cat #561584), anti-human CD117-BV421 (clone YB5.B8, BD Cat #562434), anti-human […]7 (clone ICRF44, BD Cat #557754), anti-human […]7 (clone HI30, BD Cat #557748), and anti-human CD3-FITC (clone SK7, BD Cat #340542)). The samples are incubated for 30 minutes at room temperature, protected from light. After the incubation, 1.5 mL 1×BD Lyse/Fix (37° C., (BD #558049)) is added to each sample and incubated for 12 minutes at room temperature. The tubes are centrifuged at 300×g for 7 minutes. BD Lyse/Fix solution is aspirated and the cell pellet washed with stain/wash buffer 3 times (1 wash step consisted of: pellet resuspended in 3 mL stain/wash buffer, centrifuged at 300×g, aspirated wash). Fixed cells are then resuspended in 300 to 400 μL stain/wash buffer. Samples are analyzed on a Becton Dickinson FACSVerse Flow cytometer (Cat #651155 Serial #Z6511550447) using standard flow cytometry principles and techniques. Samples are analyzed on the same day as they are stained and fixed. Population gating and data analysis of percent population are performed in the FACSuite software on the FACSVerse cytometer. Percent population values from the data analysis are plotted in Graphpad Prism or in JMP13. […]

SMILES: C=CC(=O)N1CCN([C@@H](CC2CC2)c2ccc([C@H](C)Nc3ncc4c(n3)N(CC)C(=O)OC4)cc2)CC1 [Compound A, 7-[[(1S)-1-[4-[(1S)-2-cyclopropyl-1-(4-prop-2-enoylpiperazin-1-yl)ethyl]phenyl]ethyl]amino]-1-ethyl-4H-pyrimido[4,5-d][1,3]oxazin-2-one]
- AML clearance (% hCD33 + hCD45+ (of total white cells)) (Treatment day 2, 3.3 mg/kg Compound A, Table 2A, 3.3 mg/kg): 17.05% and 19.48% and 22.89% and 20.16% and 18.6% and 25.83% and 19.49%
- AML clearance (% hCD33 + hCD45+ (of total white cells)) (Treatment day 7, 1 mg/kg Compound A, 1 mg/kg): 12.21% and 7.04% and 6.97% and 8.4% and 10.28%
- AML clearance (% hCD33 + hCD45+ (of total white cells)) (Treatment day 7, 10 mg/kg Compound A, 10 mg/kg): 4.04% and 3.35% and 6.37% and 4.2% and 2.73%
- AML clearance (% hCD33 + hCD45+ (of total white cells)) (Treatment day 15, 3.3 mg/kg Compound A, Table 2A, 3.3 mg/kg): 35.68% and 39.36% and 39.41% and 22.01% and 44.8% and 40.7% and 29.24%
- AML clearance (% hCD33 + hCD45+ (of total white cells)) (Treatment day 18, 3.3 mg/kg Compound A, 3.3 mg/kg): 20.86% and 33.61% and 41.83% and 32.38% and 38.57% and 42.91% and 20.85%
- AML clearance (% hCD33 + hCD45+ (of total white cells)) (Treatment day 23, 1 mg/kg Compound A, 1 mg/kg): 16.54% and 9.05% and 15.88% and 9.45%
- AML clearance (% hCD33 + hCD45+ (of total white cells)) (Treatment day 23, 10 mg/kg Compound A, 10 mg/kg): 4.97% and 1.6% and 8.52% and 2.88% and 2.41%
- AML clearance (% hCD33 + hCD45+ (of total white cells)) (Treatment day 28, 3.3 mg/kg Compound A, Table 2A, 3.3 mg/kg): 32.12% and 43.09% and 32.66% and 35.22% and 35% and 33.35%
- AML clearance (% hCD33 + hCD45+ (of total white cells)) (Treatment day 34, 3.3 mg/kg Compound A, 3.3 mg/kg): 27.18% and 34.09% and 34.27% and 48.87% and 20.33% and 33.11% and 34.28%
- AML clearance (% hCD33 + hCD45+ (of total white cells)) (Treatment day 36, 1 mg/kg Compound A, 1 mg/kg): 16.96% and 20.94% and 15.66% and 13.65%
- AML clearance (% hCD33 + hCD45+ (of total white cells)) (Treatment day 36, 10 mg/kg Compound A, 10 mg/kg): 4.67% and 3.89% and 4.32% and 2.11% and 2.39%
- AML clearance (% hCD33 + hCD45+ (of total white cells)) (Treatment day 43, 3.3 mg/kg Compound A, Table 2A, 3.3 mg/kg): 59.89% and 65.62% and 61.99% and 47.87% and 52.96% and 62.25% and 27.91%
- AML clearance (% hCD33 + hCD45+ (of total white cells)) (Treatment day 47, 3.3 mg/kg Compound A, 3.3 mg/kg): 64.21% and 29.4% and 31.38% and 63.41% and 45.19% and 20.69% and 37.68%
- AML clearance (% hCD33 + hCD45+ (of total white cells)) (Treatment day 50, 1 mg/kg Compound A, 1 mg/kg): 26.13% and 48.71% and 41.07% and 42.54%
- AML clearance (% hCD33 + hCD45+ (of total white cells)) (Treatment day 50, 10 mg/kg Compound A, 10 mg/kg): 2.9% and 3.66% and 5.08% and 2.11% and 1.55%
- AML clearance (% hCD33 + hCD45+ (of total white cells)) (Treatment day 58, 3.3 mg/kg Compound A, Table 2A, 3.3 mg/kg): 67.45% and 59.45% and 67.73% and 53.95% and 44.7% and 48.88% and 71.52%
- AML clearance (% hCD33 + hCD45+ (of total white cells)) (Treatment day 61, 3.3 mg/kg Compound A, 3.3 mg/kg): 68.85% and 72.89% and 47.42% and 56.98% and 82.54% and 38.58% and 74.64%
- AML clearance (% hCD33 + hCD45+ (of total white cells)) (Treatment day 64, 1 mg/kg Compound A, 1 mg/kg): 51.67% and 57.72% and 55.61% and 45.53%
- AML clearance (% hCD33 + hCD45+ (of total white cells)) (Treatment day 64, 10 mg/kg Compound A, 10 mg/kg): 0.94% and 1.66% and 1.11% and 1.55% and 0.62%
- AML clearance (% hCD33 + hCD45+ (of total white cells)) (Treatment day 75, 3.3 mg/kg Compound A, 3.3 mg/kg): 67.91% and 54.26% and 56.55% and 90.69% and 45.05% and 68.73%
- AML clearance (% hCD33 + hCD45+ (of total white cells)) (Treatment day 77, 3.3 mg/kg Compound A, Table 2A, 3.3 mg/kg): 74.81% and 79.27% and 43.75% and 60.02% and 75.38% and 59.74%
- AML clearance (% hCD33 + hCD45+ (of total white cells)) (Treatment day 78, 1 mg/kg Compound A, 1 mg/kg): 65.17% and 75.95% and 68.32% and 56.56%
- AML clearance (% hCD33 + hCD45+ (of total white cells)) (Treatment day 78, 10 mg/kg Compound A, 10 mg/kg): 0.89% and 1.72% and 0.4% and 0.45% and 0.46%
- AML clearance (% hCD33 + hCD45+ (of total white cells)) (Treatment day 84, 1 mg/kg Compound A, 1 mg/kg): 98.27% and 84.52%
- AML clearance (% hCD33 + hCD45+ (of total white cells)) (Treatment day 89, 3.3 mg/kg Compound A, 3.3 mg/kg): 66.75% and 67.29% and 63.26% and 92.41% and 41.16% and 62.6%
- AML clearance (% hCD33 + hCD45+ (of total white cells)) (Treatment day 92, 10 mg/kg Compound A, 10 mg/kg): 0.8% and 2.36% and 0.4% and 0.19% and 0.32%
- AML clearance (% hCD33 + hCD45+ (of total white cells)) (Treatment day 98, 3.3 mg/kg Compound A, Table 2A, 3.3 mg/kg): 55.63% and 73.72% and 73.42% and 85.43% and 64.03%
- AML clearance (% hCD33 + hCD45+ (of total white cells)) (Treatment day −3, 3.3 mg/kg Compound A, 3.3 mg/kg): 17.5% and 23.88% and 24.18% and 19.46% and 14.94% and 20.14%
- AML clearance (% hCD33 + hCD45+ (of total white cells)) (Treatment day −8, 1 mg/kg Compound A, 1 mg/kg): 6.97% and 3.7% and 3.2% and 7.02% and 11.07%
- AML clearance (% hCD33 + hCD45+ (of total white cells)) (Treatment day −8, 10 mg/kg Compound A, 10 mg/kg): 2.43% and 7.61% and 4.1% and 6.27% and 6.53%
- AML clearance (% hCD33 + hCD45+ (of total white cells)) (Treatment day −19, 3.3 mg/kg Compound A, Table 2A, 3.3 mg/kg): 6.86% and 3.77% and 4.41% and 2.93% and 5.26% and 4.84% and 2.39%
- % peripheral blood AML cells (treatment group value) (day 43, group B: Compound A (3.3 mg/kg), azacitidine study, vehicle 71%): 52%
- % peripheral blood AML cells (treatment group value) (day 47, group B: Compound A (3.3 mg/kg), cytarabine study, vehicle 86%): 39%
- % peripheral blood AML cells (treatment group value) (day 50, group B: 1 mg Compound A, vehicle 32%): 37%
- % peripheral blood AML cells (treatment group value) (day 50, group C: 10 mg Compound A, vehicle 32%): 2.8%
